Results from PubChem BioAssay (NCI).
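These data come from cells grown in 96-well plates and exposed to compound for 48 hours at five concentrations. Here, GI50 denotes the concentration required for 50% inhibition of growth. TGI: total growth inhibition.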

How the values were obtained:
Assay in all cases: inhibition of tumour cell growth, NCI panel, 48 h
TK-10 renal = test system: TK-10 renal
UACC-257 melanoma = test system: UACC-257 melanoma
K-562 leukemia = test system: K-562 leukemia
786-0 renal = test system: 786-0 renal
MCF7 breast = test system: MCF7 breast
COLO 205 colon = test system: COLO 205 colon
HOP-92 NSCLC = test system: HOP-92 NSCLC
SK-OV-3 ovarian = test system: SK-OV-3 ovarian
SNB-19 CNS = test system: SNB-19 CNS
UACC-62 melanoma = test system: UACC-62 melanoma

| SMILES | GI50 (TK-10 renal) | TGI (TK-10 renal) | GI50 (UACC-257 melanoma) | TGI (UACC-257 melanoma) | GI50 (K-562 leukemia) | TGI (K-562 leukemia) | GI50 (786-0 renal) | TGI (786-0 renal) | GI50 (MCF7 breast) | TGI (MCF7 breast) | GI50 (COLO 205 colon) | TGI (COLO 205 colon) | GI50 (HOP-92 NSCLC) | TGI (HOP-92 NSCLC) | GI50 (SK-OV-3 ovarian) | TGI (SK-OV-3 ovarian) | GI50 (SNB-19 CNS) | TGI (SNB-19 CNS) | GI50 (UACC-62 melanoma) | TGI (UACC-62 melanoma) |
| --- | --- | --- | --- | --- | --- | --- | --- | --- | --- | --- | --- | --- | --- | --- | --- | --- | --- | --- | --- | --- |
| NC(=O)CC1(O)C=C(Br)C(=O)C(Br)=C1 | 1.65 µM | 4.2 µM | 1.9 µM | 4.06 µM | 2.22 µM | 8.73 µM | 8.76 µM | > 35.7 µM | 3.3 µM | 15.3 µM | 1.25 µM | 2.63 µM | 1.85 µM | 4.26 µM | 17.9 µM | 32.3 µM | 18.1 µM | 32.6 µM | 4.21 µM | 15.8 µM |
| COc1cccc(/C=C/c2ccnc3ccccc23)c1OC | – | > 10 µM | – | > 10 µM | – | > 10 µM | – | > 10 µM | – | > 10 µM | – | > 10 µM | – | > 10 µM | – | > 10 µM | – | > 10 µM | – | > 10 µM |
| NC1=NC(=O)/C(=C/c2ccc3ncccc3c2)S1 | > 25 µM | > 25 µM | > 25 µM | > 25 µM | > 25 µM | > 25 µM | > 25 µM | > 25 µM | > 12.2 µM | > 25 µM | > 25 µM | > 25 µM | > 25 µM | > 25 µM | > 25 µM | > 25 µM | > 25 µM | > 25 µM | > 25 µM | > 25 µM |
| COc1ccc(Cl)cc1Nc1nc(C(F)(F)F)ccc1C(=O)N/N=C/c1cccnc1 | 5.9 µM | > 100 µM | 3.93 µM | 9.88 µM | 3.16 µM | > 100 µM | 2.63 µM | > 100 µM | 3.51 µM | > 100 µM | 2.58 µM | > 100 µM | 2.42 µM | 28.3 µM | 2.47 µM | > 100 µM | 3.78 µM | > 100 µM | 3.69 µM | > 100 µM |
| CCOc1ccc2c(c1)CN(Cc1ccc(Cl)cc1)CO2 | 19 µM | 64.8 µM | 16 µM | 35.8 µM | 17 µM | 57 µM | 14.8 µM | 30.1 µM | 16.4 µM | 35.2 µM | 19 µM | 36.1 µM | 8.63 µM | 36.8 µM | 29.8 µM | > 100 µM | 24.6 µM | > 100 µM | 16.1 µM | 31.2 µM |
| COc1ccc(-c2[nH]nc(N)c2-c2cc(OC)c3c(c2)OCO3)cc1 | 8.42 µM | 60.1 µM | 5.77 µM | > 100 µM | 1.87 µM | > 100 µM | 7.82 µM | > 100 µM | 3.83 µM | > 100 µM | 4.76 µM | 20 µM | 3.54 µM | 46.8 µM | 5.74 µM | > 100 µM | 5.23 µM | > 100 µM | 4.13 µM | > 100 µM |
| O=C1C=CC(=Nc2cccc3c(N=C4C=CC(=O)O4)cccc23)O1 | – | 33.3 µM | – | 55.6 µM | – | 55.6 µM | – | 34.5 µM | – | > 100 µM | – | 40.4 µM | – | > 100 µM | – | > 100 µM | – | > 100 µM | – | > 100 µM |
| COc1cccc(C2=C(c3cn(C)c4cc(F)ccc34)C(=O)NC2=O)c1 | > 16.9 µM | > 25 µM | > 25 µM | > 25 µM | 12.4 µM | > 25 µM | > 18.7 µM | > 25 µM | 7.56 µM | > 25 µM | 10.9 µM | > 25 µM | > 25 µM | > 25 µM | > 25 µM | > 25 µM | > 25 µM | > 25 µM | 14.3 µM | > 25 µM |
| COc1ccc(C(=O)O[C@H]2[C@H](O[C@H]3[C@@H](O)COC(O[C@H]4C[C@H]5[C@@H]6CC=C7C[C@@H](O)CC[C@]7(C)[C@H]6CC[C@]5(C)[C@H]4[C@H](C)C(=O)CCC(C)C)[C@@H]3OC(C)=O)OC[C@@H](O)[C@@H]2O)c(C)c1 (some centres undefined) | 0.27 µM | 34.8 µM | 0.0196 µM | 0.0621 µM | < 0.01 µM | 13.9 µM | < 0.01 µM | 7.38 µM | < 0.01 µM | 11 µM | 0.0178 µM | 0.133 µM | < 0.01 µM | 0.0866 µM | 0.0246 µM | 9.5 µM | < 0.01 µM | 10.3 µM | < 0.01 µM | < 0.01 µM |
| OCc1ccc(N2CCc3cc(F)ccc3C2)cc1Cl | – | 0.0416 µM | 0.0197 µM | 0.0723 µM | 0.125 µM | 17.2 µM | 8.64 µM | 22.7 µM | 0.0771 µM | 13.3 µM | 0.0828 µM | 0.353 µM | 0.199 µM | 6.36 µM | 3.85 µM | 15.9 µM | 13.2 µM | 26.3 µM | 0.0256 µM | 0.198 µM |
| CCOC(=O)/C(C#N)=C1\SS/C(=C(/C#N)C(=O)OCC)S1 | 6.81 µM | 20.3 µM | 18.3 µM | 34.8 µM | 7.99 µM | > 100 µM | 19.2 µM | 34.1 µM | 18.3 µM | 41.1 µM | 0.861 µM | 2.67 µM | 14.3 µM | 28.3 µM | > 100 µM | > 100 µM | 35.8 µM | > 100 µM | 15.8 µM | 32.6 µM |
